We go through four compounds from publication PMC10891067, “A co-assembly platform engaging macrophage scavenger receptor A for lysosome-targeting protein degradation” (Nature Communications, 2024).

Residues, ends and D or L forms follow the SMILES beside them. *: point of attachment. Fmoc = O=C(OCC1c2ccccc2-c2ccccc21)*; Ahx = NCCCCCC(=O)O

Series [1] concerns the target T1, IL-17A (Mus musculus, UniProt Q62386).
T1 sequence (Q62386 26-158): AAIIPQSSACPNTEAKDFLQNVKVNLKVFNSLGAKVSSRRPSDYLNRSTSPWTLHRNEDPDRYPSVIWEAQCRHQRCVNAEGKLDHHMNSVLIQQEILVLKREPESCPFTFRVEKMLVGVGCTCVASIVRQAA
As to the kind of experiment: Lysosome inhibition assay (LPT, BafA1). The note with it: RAW264.7, 0.5 μg/ml IL-17A + 50 μM 17A-Lytaca, 6 h. More on the design: host or cells: added exogenously to RAW264.7, SR-A-KO RAW264.7, U-118 MG, DC 2.4 or HaCaT cells. Type of series: cell-based. The protocol:
To confirm the involvement of lysosomes, RAW264.7 cells were pretreated with PBS, LPT (0.1 mg/ml), or BafA1 (100 nM) for 2 h at 37 °C. […] The accumulation of IL-17A in the cells was then measured via flow cytometry, following the aforementioned procedure.

A short description of series [2]: In vivo localization and clearance assay of 17A-Lytaca (IVIS). More on the design: species or system mouse. The note with it: psoriasis mice, i.p. Cy-labeled 17A-Lytaca (Cy5-fm-17Abp 5 mg/kg, Cy7-fm-SRAL 7.3 mg/kg). The protocol: Fluorescence imaging in both the Cy5 and Cy7 channels was conducted using the in vivo imaging system (IVIS Spectrum) at 4, 8, 12, 24, and 48 h post-injection. Further, for biodistribution assessment, mice were sacrificed at 6 h post-injection, and skins along with major organs (heart, liver, spleen, lung, and kidney) were removed for ex vivo fluorescence imaging.

A short description of series [3]: Serum clearance kinetics of 17A-Lytaca relevant peptides. The note with it: healthy mice, i.p. Cy-labeled 17A-Lytaca (Cy5-fm-17Abp 15 mg/kg, Cy3-fm-SRAL 22 mg/kg), IVIS, n = 3. Format: in vivo, mouse. On the procedure:
Serum samples were collected at 0, 1, 2, 3, 4, 8, 12, and 24 h for analysis. The fluorescence intensity of serum was measured with the in vivo imaging system (IVIS) spectrum.

Series [4] deals with T1, IL-17A. In words: IL-17A binding competition experiment with IL-17RA (IL-17A uptake). Format: cell-based. More on the design: host or cells: added exogenously to RAW264.7, SR-A-KO RAW264.7, U-118 MG, DC 2.4 or HaCaT cells. The settings on record: RAW264.7, with fi-SRAL and fi-17Abp mixture and IL-17A. On the procedure:
To verify the binding of the IL-17A by mixed fi-17Abp and fi-SRAL, RAW264.7 cells were treated with 0.5 μg/ml IL-17A, 50 μM mixed fi-SRAL and fi-17Abp and IL-17RA at 0, 0.0125, 0.025, 0.05, 0.1, or 0.2 μg/ml for 6 h. Then, flow cytometry analysis was used to measure the intracellular IL-17A level according to the procedure mentioned above.

Take `CO/C1=C\C(C)=C\[C@@H](C)[C@@H](O)[C@@H](C)C/C(C)=C/C=C/[C@H](OC)[C@@H]([C@@H](C)[C@@H](O)[C@H](C)[C@@]2(O)C[C@@H](O)[C@H](C)[C@@H](C(C)C)O2)OC1=O` [BafA1, Bafilomycin A1]: the “IL-17A accumulation in cells with lysosome inhibitor (in words)” value on IL-17A [1] is recorded as “significantly higher IL-17A accumulation in cells”. On the same count and under the same terms, to `CC(=O)N[C@@H](CC(C)C)C(=O)N[C@@H](CC(C)C)C(=O)N[C@H](C=O)CCCNC(=N)N` [LPT, Leupeptin] belongs “significantly higher IL-17A accumulation in cells”. On to `C[C@H](NC(=O)[C@H](CCC(=O)O)NC(=O)[C@H](C)NC(=O)[C@H](CCC(=O)O)NC(=O)[C@H](C)NC(=O)[C@H](CCC(=O)O)NC(=O)[C@H](C)NC(=O)[C@H](CCC(=O)O)NC(=O)[C@H](C)NC(=O)[C@H](CCC(=O)O)NC(=O)[C@H](C)NC(=O)[C@H](CCC(=O)O)NC(=O)[C@H](C)NC(=O)[C@H](CCC(=O)O)NC(=O)[C@H](C)NC(=O)[C@H](CCC(=O)O)NC(=O)[C@H](C)NC(=O)[C@H](CCC(=O)O)NC(=O)[C@H](C)NC(=O)[C@H](CCC(=O)O)NC(=O)[C@H](C)NC(=O)[C@H](CCC(=O)O)NC(=O)[C@H](C)NC(=O)[C@H](CCC(=O)O)NC(=O)[C@H](C)NC(=O)[C@H](CCC(=O)O)NC(=O)[C@H](C)NC(=O)[C@H](CCC(=O)O)NC(=O)[C@H](C)NC(=O)[C@H](CCC(=O)O)NC(=O)CCCCCNC(=O)OCC1c2ccccc2-c2ccccc21)C(N)=O` [fm-SRAL] ({Fmoc-Ahx}-EAEAEAEAEAEAEAEAEAEAEAEAEAEAEA-NH2), for which the “Time up to which the peptide remained detectable in vivo” value in series [2] is reported as 48 h. In addition, the “Time up to which the serum fluorescent signal was detectable” value in series [3] is at most 8 h. “IL-17RA: IL-17A receptor protein used as competitor for the 17Abp binding domain of IL-17A”: in the series with IL-17A [4], the “Effect on intracellular IL-17A signal (in words)” value is “concentration-dependent attenuation”.
